What all share (assay type): cell-based
The target of assay [1] is EP2 subtype of the human PGE2 receptor (Homo sapiens, UniProt P43116). Kind of assay: cAMP antagonism test on the human EP2 receptor (HTRF cAMP detection). Conditions: hEP2 receptor, read-out: Antagonism hEP2 IC50. An outline of the steps: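 Read-out is a competitive HTRF for cAMP: lysate cAMP displaces cAMP-d2 from Eu cryptate-labelled antibody, and antagonism raises the 665/620 nm ratio. Compound (0.8 nM–16.5 μM) added to EP2 cells 20 min at RT before 60 min PGE2 challenge (3× stock 1.5 nM) with IBMX, followed by 20 min lysis.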
Sequence of EP2 subtype of the human PGE2 receptor (P43116 whole entry): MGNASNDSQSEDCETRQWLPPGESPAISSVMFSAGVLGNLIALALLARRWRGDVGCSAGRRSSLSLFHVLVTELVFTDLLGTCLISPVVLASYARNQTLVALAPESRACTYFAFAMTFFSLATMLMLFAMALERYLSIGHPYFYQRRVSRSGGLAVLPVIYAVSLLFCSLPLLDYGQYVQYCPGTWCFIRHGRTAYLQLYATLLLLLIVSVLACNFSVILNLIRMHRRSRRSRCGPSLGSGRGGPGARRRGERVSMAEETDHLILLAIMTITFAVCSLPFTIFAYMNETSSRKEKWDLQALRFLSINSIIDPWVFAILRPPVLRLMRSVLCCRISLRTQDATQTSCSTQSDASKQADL

Assay [2] deals with EP4 subtype of the human PGE2 receptor (Homo sapiens, UniProt P35408). As to the kind of experiment: cAMP antagonism test on the human EP4 receptor (HTRF cAMP detection). The conditions noted are these: selectivity towards hEP4, IC50 measured by cAMP antagonism test. Summed up: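 Competitive HTRF cAMP read-out (cAMP-d2 vs Eu-cryptate anti-cAMP antibody, 665/620 nm ratio) on lysed human EP4 cells. Compound (0.8 nM–16.5 μM) applied 20 min at RT before 60 min PGE2 challenge (3× solution 0.3 nM, IBMX present); 20 min lysis precedes reading.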
Sequence of EP4 subtype of the human PGE2 receptor (P35408 whole entry): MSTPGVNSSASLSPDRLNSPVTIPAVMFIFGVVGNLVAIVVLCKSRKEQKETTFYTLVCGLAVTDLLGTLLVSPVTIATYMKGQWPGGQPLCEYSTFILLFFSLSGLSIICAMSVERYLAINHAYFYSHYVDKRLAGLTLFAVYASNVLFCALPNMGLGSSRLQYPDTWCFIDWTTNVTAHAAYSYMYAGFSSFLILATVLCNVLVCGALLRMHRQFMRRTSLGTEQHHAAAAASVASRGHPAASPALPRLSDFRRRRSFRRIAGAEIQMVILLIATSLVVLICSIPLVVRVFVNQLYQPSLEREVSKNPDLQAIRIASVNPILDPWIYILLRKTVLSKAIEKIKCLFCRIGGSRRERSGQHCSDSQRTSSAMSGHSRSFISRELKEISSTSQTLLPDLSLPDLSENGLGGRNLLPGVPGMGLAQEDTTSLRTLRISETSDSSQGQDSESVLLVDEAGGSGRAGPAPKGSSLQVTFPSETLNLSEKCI

For another assay, the target named is T1, human PGD receptor (Homo sapiens, UniProt Q13258).
T1 sequence (Q13258 1-359): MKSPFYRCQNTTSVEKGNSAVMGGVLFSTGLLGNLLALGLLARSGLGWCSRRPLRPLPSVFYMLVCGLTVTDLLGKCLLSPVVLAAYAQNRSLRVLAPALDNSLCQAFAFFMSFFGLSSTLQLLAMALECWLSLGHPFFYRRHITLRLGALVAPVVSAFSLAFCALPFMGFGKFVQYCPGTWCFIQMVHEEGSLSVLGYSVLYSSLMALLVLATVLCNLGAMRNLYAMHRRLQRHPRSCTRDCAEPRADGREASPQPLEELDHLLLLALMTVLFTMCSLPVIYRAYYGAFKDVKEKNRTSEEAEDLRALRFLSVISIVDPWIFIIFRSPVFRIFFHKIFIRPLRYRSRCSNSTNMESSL
Kind of assay: cAMP antagonism test on the human prostaglandin D receptor (HTRF cAMP detection). Conditions: selectivity towards hDP, IC50 measured by cAMP antagonism test. Summed up:
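HTRF competition read-out (665/620 nm ratio ×10000), where higher FRET means less cAMP, i.e. antagonism. Compounds (0.8 nM–16.5 μM) were preincubated 20 min at RT with cells and cAMP-d2, PGD2 (3× solution, 6 nM) in IBMX-containing PBS added for 30 min at RT, then cells lysed 20 min.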
In general terms: Time-resolved FRET reads energy transfer from a long-lived donor to a nearby acceptor.

SMILES strings stand for the structures.

The values that follow come from patent US9062041B2 (Bayer Intellectual Property GmbH, priority 2011, dated 2015).

Consider `COCCNC(=O)c1ccc2nn(CC3CN(C(=O)c4cc5cc(OC)ccc5n4C)C3)cc2c1C` [Example 172, N-(2-methoxyethyl)-2-({1-[(5-methoxy-1-methyl-1H-indol-2-yl)carbonyl]azetidin-3-yl}methyl)-4-methyl-2H-indazol-5-carboxamide], for which the 50% inhibitory concentration (IC50) in assay [1] stood at 3.16 nM. Moreover, the “Selectivity hEP2/hEP4” value in assay [2] is given as “xxx (xxx > 100)”. Moreover, the “Selectivity hEP2/hDP” value on human PGD receptor is on record as “xxx (xxx > 100)”.
`Cc1cc2nn(CC3CCN(C(=O)c4ccc(C(F)(F)F)cc4)CC3)cc2cc1C(=O)NCCN1CCOCC1` [Example 79, 6-methyl-N-(2-morpholinoethyl)-2-({1-[4-(trifluoro-methyl)benzoyl]-piperidin-4-yl}-methyl)-2H-indazol-5-carboxamide]: in assay [1], the half-maximal inhibitory concentration (IC50) is 125 nM. Also, in assay [2], the “Selectivity hEP2/hEP4” value is “xxx (xxx > 100)”. At human PGD receptor, the “Selectivity hEP2/hDP” value was “xxx (xxx > 100)”.
For the molecule `COCCNC(=O)c1ccc2nn(CC3CCN(C(=O)c4ccc(S(C)(=O)=O)cc4F)CC3)cc2c1C` [Example 6, 2-{[1-(2-fluoro-4-mesylbenzoyl)piperidin-4-yl]methyl}-N-(2-methoxyethyl)-4-methyl-2H-indazol-5-carboxamide], the concentration for half-maximal inhibition (IC50) in assay [1] was 313 nM. Besides, in assay [2], the “Selectivity hEP2/hEP4” value was “xx (xx: 10-100)”. Further, the “Selectivity hEP2/hDP” value on human PGD receptor is on record as “xx (xx: 10-100)”.
Turning to `Cc1c(C(=O)NCC(F)(F)F)ccc2nn(CC3CCN(C(=O)c4cnc(-c5ccccc5)o4)CC3)cc12` [Example 300, 4-methyl-2-({1-[(2-phenyloxazol-5-yl)carbonyl]piperidin-4-yl}methyl)-N-(2,2,2-trifluoroethyl)-2H-indazol-5-carboxamide], the IC50 in assay [1] is 79.8 nM. The “Selectivity hEP2/hEP4” value in assay [2] is “xxx (xxx > 100)”. Besides, at human PGD receptor, the “Selectivity hEP2/hDP” value is recorded as “xxx (xxx > 100)”.
Regarding `Cc1cc2nn(CC3CN(C(=O)c4ccc(Oc5ccc(C(F)(F)F)cc5)cc4)C3)cc2cc1C(=O)NCC(F)(F)F` [Example 201, 6-methyl-N-(2,2,2-trifluoroethyl)-2-[(1-{4-[4-(trifluoromethyl)phenoxy]benzoyl}azetidin-3-yl)methyl]-2H-indazol-5-carboxamide], in assay [1], the 50% inhibitory concentration (IC50) was found to be 24.9 nM. Also, the “Selectivity hEP2/hEP4” value in assay [2] is recorded as “xxx (xxx > 100)”. In addition, at human PGD receptor, the “Selectivity hEP2/hDP” value is listed as “xxx (xxx > 100)”.
Turning to `Cc1c(C(=O)NCC(F)(F)F)ccc2nn(CC3CCN(C(=O)c4ccc(Oc5ccc(Cl)cc5)cc4)CC3)cc12` [Example 284, 2-({1-[4-(4-chlorophenoxy)benzoyl]piperidin-4-yl}methyl)-4-methyl-N-(2,2,2-trifluoroethyl)-2H-indazol-5-carboxamide], the IC50 in assay [1] was 56.4 nM. Besides, the “Selectivity hEP2/hEP4” value in assay [2] was “xxx (xxx > 100)”. Further, at human PGD receptor, the “Selectivity hEP2/hDP” value is listed as “xxx (xxx > 100)”.
With `Cc1c(C(=O)NCCCO)ccc2nn(CC3CCN(C(=O)c4ccc(Cl)cc4)CC3)cc12` [Example 253, 2-{[1-(4-chlorobenzoyl)piperidin-4-yl]methyl}-N-(3-hydroxypropyl)-4-methyl-2H-indazol-5-carboxamide], the IC50 in assay [1] is 168 nM. Moreover, the “Selectivity hEP2/hEP4” value in assay [2] was “xx (xx: 10-100)”. The “Selectivity hEP2/hDP” value at human PGD receptor is given as “xx (xx: 10-100)”.
On to `Cc1c(C(=O)NCC(F)(F)F)ccc2nn(CC3CN(C(=O)c4cc5cc(F)ccc5n4C)C3)cc12` [Example 167, 2-({1-[(5-fluoro-1-methyl-1H-indol-2-yl)carbonyl]azetidin-3-yl}methyl)-4-methyl-N-(2,2,2-trifluoroethyl)-2H-indazol-5-carboxamide], for which the IC50 in assay [1] was 13.5 nM. Also, the “Selectivity hEP2/hEP4” value in assay [2] is recorded as “xxx (xxx > 100)”. Also, the “Selectivity hEP2/hDP” value at human PGD receptor is on record as “xxx (xxx > 100)”.
On to `COCCNC(=O)c1ccc2nn(CC3CCN(C(=O)c4cn(C)c5ccccc45)CC3)cc2c1C` [Example 331, N-(2-methoxyethyl)-4-methyl-2-({1-[(1-methyl-1H-indol-3-yl)carbonyl]-piperidin-4-yl}methyl)-2H-indazol-5-carboxamide], for which, in assay [1], the IC50 was 9.47 nM. For the same molecule, in assay [2], the “Selectivity hEP2/hEP4” value was “xxx (xxx > 100)”. Besides, the “Selectivity hEP2/hDP” value at human PGD receptor is listed as “xxx (xxx > 100)”.
For `COCCNC(=O)c1ccc2nn(CC3CCN(C(=O)c4ccc(-c5ccc(C#N)cc5C)cc4)CC3)cc2c1C` [Example 367, 2-({1-[(4′-cyano-2′-methylbiphenyl-4-yl)carbonyl]piperidin-4-yl}methyl)-N-(2-methoxyethyl)-4-methyl-2H-indazol-5-carboxamide], the concentration for half-maximal inhibition (IC50) in assay [1] amounted to 5.84 nM. In assay [2], the “Selectivity hEP2/hEP4” value is “xxx (xxx > 100)”. In addition, the “Selectivity hEP2/hDP” value at human PGD receptor is “xxx (xxx > 100)”.
With `Cc1ccc(C(=O)N2CC(Cn3cc4c(C)c(C(=O)NCCOCC5CC5)ccc4n3)C2)cc1` [Example 151, N-[2-(cyclopropylmethoxy)ethyl]-4-methyl-2-{[1-(4-methylbenzoyl)azetidin-3-yl]methyl}-2H-indazol-5-carboxamide], the concentration for half-maximal inhibition (IC50) in assay [1] worked out at 48.5 nM. In addition, the “Selectivity hEP2/hEP4” value in assay [2] was “xxx (xxx > 100)”. Moreover, on human PGD receptor, the “Selectivity hEP2/hDP” value was “xxx (xxx > 100)”.
On to `COCCNC(=O)c1ccc2nn(CC3CCN(C(=O)c4ccc(Oc5ccc(C(C)(C)C)cc5)cc4)CC3)cc2c1C` [Example 16, 2-({1-[4-(4-tert-butylphenoxy)-benzoyl]piperidin-4-yl}methyl)-N-(2-methoxyethyl)-4-methyl-2H-indazol-5-carboxamide], for which the concentration for half-maximal inhibition (IC50) in assay [1] was 5.85 nM. For the same molecule, the “Selectivity hEP2/hEP4” value in assay [2] was “xxx (xxx > 100)”. Moreover, on human PGD receptor, the “Selectivity hEP2/hDP” value is given as “xxx (xxx > 100)”.
`COCCNC(=O)c1ccc2nn(CC3CCN(C(=O)c4ccc(F)cc4)CC3)cc2c1C` [Example 22, 2-{[1-(4-fluoro-benzoyl)piperidin-4-yl]methyl}-N-(2-methoxyethyl)-4-methyl-2H-indazol-5-carboxamide]: the half-inhibitory concentration (IC50) in assay [1] was 30.3 nM. Besides, in assay [2], the “Selectivity hEP2/hEP4” value is reported as “xxx (xxx > 100)”. The “Selectivity hEP2/hDP” value at human PGD receptor is given as “xxx (xxx > 100)”.
With `Cc1ccc(-c2ccc(C(=O)N3CCC(Cn4cc5c(C)c(C(=O)NCC(F)(F)F)ccc5n4)CC3)cc2)cn1` [Example 319, 4-methyl-2-({1-[4-(6-methylpyridin-3-yl)benzoyl]piperidin-4-yl}methyl)-N-(2,2,2-trifluoroethyl)-2H-indazol-5-carboxamide], the IC50 in assay [1] turned out to be 315 nM. Besides, the “Selectivity hEP2/hEP4” value in assay [2] was “xx (xx: 10-100)”. In addition, on human PGD receptor, the “Selectivity hEP2/hDP” value is “xx (xx: 10-100)”.
For `Cc1c(C(=O)NCCSC(F)(F)F)ccc2nn(C[C@@H]3CCN(C(=O)c4ccc(Cl)cc4)C3)cc12` [Example 220, 2-{[(R)-1-(4-chlorobenzoyl)pyrrolidin-3-yl]methyl}-4-methyl-N-{2-[(trifluoromethyl)sulphanyl]ethyl}-2H-indazol-5-carboxamide], the half-maximal inhibitory concentration (IC50) in assay [1] worked out at 147 nM. In assay [2], the “Selectivity hEP2/hEP4” value was “xxx (xxx > 100)”. Also, at human PGD receptor, the “Selectivity hEP2/hDP” value is recorded as “xxx (xxx > 100)”.
Consider `COCCNC(=O)c1ccc2nn(CC3CCN(C(=O)c4ccc(-c5cccc(C(F)(F)F)n5)cc4)CC3)cc2c1C` [Example 369, N-(2-methoxyethyl)-4-methyl-2-[(1-{4-[6-(trifluoromethyl)pyridin-2-yl]-benzoyl}piperidin-4-yl)methyl]-2H-indazol-5-carboxamide], for which the half-maximal inhibitory concentration (IC50) in assay [1] stood at 5.66 nM. The “Selectivity hEP2/hEP4” value in assay [2] is on record as “xxx (xxx > 100)”. Further, the “Selectivity hEP2/hDP” value at human PGD receptor is “xxx (xxx > 100)”.
Take `COCCNC(=O)c1ccc2nn(CC3CCN(C(=O)c4ccc(-c5cnc(C)nc5)cc4)CC3)cc2c1C` [Example 379, N-(2-methoxyethyl)-4-methyl-2-({1-[4-(2-methylpyrimidin-5-yl)benzoyl]-piperidin-4-yl}methyl)-2H-indazol-5-carboxamide]: the 50% inhibitory concentration (IC50) in assay [1] was determined as 62.6 nM. The “Selectivity hEP2/hEP4” value in assay [2] is “xxx (xxx > 100)”. The “Selectivity hEP2/hDP” value on human PGD receptor is “xxx (xxx > 100)”.
`Cc1cc2nn(CC3CN(C(=O)c4ccc(S(F)(F)(F)(F)F)cc4)C3)cc2cc1C(=O)NCCSC(F)(F)F` [Example 187, 6-methyl-2-({1-[4-(pentafluoro-λ^6-sulphanyl)benzoyl]azetidin-3-yl}methyl)-N-{2-[(trifluoromethyl)sulphanyl]ethyl}-2H-indazol-5-carboxamide]: the IC50 in assay [1] was found to be 23.5 nM. Also, the “Selectivity hEP2/hEP4” value in assay [2] was “xxx (xxx > 100)”. For the same molecule, the “Selectivity hEP2/hDP” value on human PGD receptor was “xxx (xxx > 100)”.
Consider `COCCNC(=O)c1ccc2nn(CC3CCN(C(=O)c4ccc(C#N)cc4)CC3)cc2c1C` [Example 33, 2-{[1-(4-cyano-benzoyl)piperidin-4-yl]methyl}-N-(2-methoxyethyl)-4-methyl-2H-indazol-5-carboxamide], for which, in assay [1], the IC50 worked out at 34.2 nM. For the same molecule, in assay [2], the “Selectivity hEP2/hEP4” value was “xxx (xxx > 100)”. In addition, on human PGD receptor, the “Selectivity hEP2/hDP” value is recorded as “xxx (xxx > 100)”.

The IC50 is the concentration at which inhibition is half-maximal.
